# According to US20240270762A1, “PENICILLIN-BINDING PROTEIN INHIBITORS” (priority 2021, published 2024):
# Tests used:
# [1] = tested on: P. aeruginosa (ΔmexAB-oprM); assay: Broth microdilution MIC in CAMHB; format: cell-based; conditions: Pseudomonas aeruginosa; read-out: MIC P. aeruginosa ΔmexAB-oprM
# N. gonorrhoeae WHO G = assay: Liquid broth MIC in Fastidious broth; conditions: Neisseria gonorrhoeae, read-out: Minimum Inhibitory Concentration (MIC), N. gonorrhoeae WHO G
# P. aeruginosa ATCC 27853 = assay: microbe, parasite or virus in culture; format: cell-based; conditions: Pseudomonas aeruginosa, ATCC27853, read-out: MIC P. aeruginosa ATCC 27853
# K. pneumoniae 848844 = assay: microbe, parasite or virus in culture; format: cell-based; conditions: Klebsiella pneumoniae, 848844, read-out: MIC K. pneumoniae 848844
# N. gonorrhoeae WHO X = assay: Liquid broth MIC in Fastidious broth; conditions: Neisseria gonorrhoeae, read-out: Minimum Inhibitory Concentration (MIC), N. gonorrhoeae WHO X
# Method: Liquid broth-based assays were used for antibacterial testing of PBP inhibitors in Neisseria gonorrhoeae. Briefly, cryo-preserved bacterial cultures of clinical strains were streaked for isolation on Chocolate Agar (72 g/L (2×) GC Agar Base (BD #228950) and 2% (2×) Hemoglobin was autoclaved at 121° C. for 20 minutes to sterilize. Once cooled to ˜50° C. the 2×GC Agar Base and 2× Hemoglobin solutions are combined and 1% IsoVitaleX Enrichment (BD #211876) was added to the solution). Strains were incubated at 36° C. and 5% CO2 to allow growth of colonies, 24 hours before inoculum preparation. 2-fold serial dilutions of test compounds were conducted in a 96 well plate with a final volume of 75 μL per well at 2-fold the final desired concentration in Fastidious broth (Remel #R07664). For preparation of assay inoculum, a direct suspension was prepared by aseptically swabbing 10-15 colonies from agar plates into culture tubes containing 2 mL of fresh sterile saline. After the dilution plates were set up, direct suspensions were then diluted in a cuvette containing sterile saline and the optical density was measured at 600 nm. Inocula were diluted such that 75 μL of this culture in Fastidious broth results in a starting bacterial concentration of 5×10^5 CFU/mL when added to the dilution plates. The plates were incubated for ˜24 hours at 36° C. and 5% CO2.
# [2] = target: T1, PBP3 from Pseudomonas aeruginosa (PAO1) (Pseudomonas aeruginosa, UniProt G3XD46); assay: Bocillin-FL fluorescence polarization competition binding, P. aeruginosa PBP3; conditions: Binding affinity to P. aeruginosa PBP3; fluorescence polarization competition binding assay using Bocillin-FL; read-out: P. aeruginosa PBP3 Potency
# T1 construct: made in house
# Procedure, shortened: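 Purified PBP was preincubated with inhibitor (E. coli PBP3 1.5 μM, 30 min; P. aeruginosa PBP3 0.75 μM, A. baumannii PBP3 0.2 μM and PBP1a 1 μM, 15 min), then Bocillin-FL (0.1 μM; 0.05 μM for PBP1a) added and FP read up to 60 min. EC50 = 50% loss of bound probe.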
# N. gonorrhoeae FA1090 = assay: Liquid broth MIC in Fastidious broth; conditions: Neisseria gonorrhoeae, FA1090, read-out: Minimum Inhibitory Concentration (MIC), N. gonorrhoeae FA 1090
# E. coli AG100 = assay: microbe, parasite or virus in culture; format: cell-based; conditions: Escherichia coli, AG100, read-out: MIC E. coli AG100
# T1 sequence (G3XD46 whole entry): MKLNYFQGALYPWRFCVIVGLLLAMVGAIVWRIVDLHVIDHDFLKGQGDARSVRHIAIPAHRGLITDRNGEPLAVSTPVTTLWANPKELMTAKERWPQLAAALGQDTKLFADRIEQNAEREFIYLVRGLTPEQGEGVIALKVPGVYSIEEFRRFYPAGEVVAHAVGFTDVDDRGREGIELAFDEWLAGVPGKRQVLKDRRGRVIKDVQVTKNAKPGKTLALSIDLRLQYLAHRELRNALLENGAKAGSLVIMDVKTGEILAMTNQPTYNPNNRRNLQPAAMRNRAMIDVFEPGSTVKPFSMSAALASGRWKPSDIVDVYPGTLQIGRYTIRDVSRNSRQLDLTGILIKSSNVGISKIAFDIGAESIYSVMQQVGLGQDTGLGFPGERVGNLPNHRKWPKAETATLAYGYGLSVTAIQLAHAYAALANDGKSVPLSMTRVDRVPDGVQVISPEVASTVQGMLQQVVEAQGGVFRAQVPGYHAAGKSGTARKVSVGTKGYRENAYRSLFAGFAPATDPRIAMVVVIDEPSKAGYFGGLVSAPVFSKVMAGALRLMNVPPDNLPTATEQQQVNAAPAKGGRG
Compound,MIC [1],MIC (N. gonorrhoeae WHO G),MIC (P. aeruginosa ATCC 27853),MIC (K. pneumoniae 848844),MIC (N. gonorrhoeae WHO X),IC50 [2],MIC (N. gonorrhoeae FA1090),MIC (E. coli AG100)
"O=C(O)c1cccc2c1OB(O)[C@@H](NC(=O)[C@H](NC(=O)[C@@H]1CCCN1)c1ccc(P(=O)(O)O)cc1)C2 [Example 173, (R)-2-hydroxy-3-((R)-2-(4-phosphonophenyl)-2-((S)-pyrrolidine-2-carboxamido)acetamido)-3,4-dihydro-2H-benzo[e][1,2]oxaborinine-8-carboxylic acid]",32 to 64 mg/L,4 to 8 mg/L,> 128 mg/L,> 128 mg/L,16 to 32 mg/L,10 to 50 µM,4 to 8 mg/L,> 128 mg/L
"CS(=O)(=O)N1CCN(C(=O)N[C@@H](C(=O)N[C@H]2Cc3ccc(F)c(C(=O)O)c3OB2O)c2ccc(P(=O)(O)O)c(F)c2)C1=O (single isomer, unassigned) [Example 19]",32 to 64 mg/L,< 1 mg/L,> 128 mg/L,> 128 mg/L,< 1 mg/L,< 10 µM,< 1 mg/L,> 128 mg/L
"O=C(O)c1cccc2c1OB(O)[C@@H](NC(=O)C(NC(=O)N1CCCNC1=O)c1ccc(P(=O)(O)O)cc1)C2 (stereo partly drawn) [Example 56, (3R)-2-hydroxy-3-(2-(2-oxohexahydropyrimidine-1-carboxamido)-2-(4-phosphonophenyl)acetamido)-3,4-dihydro-2H-benzo[e][1,2]oxaborinine-8-carboxylic acid]",> 128 mg/L,1 to 2 mg/L,> 128 mg/L,> 128 mg/L,16 to 32 mg/L,< 10 µM,< 1 mg/L,> 128 mg/L
"CS(=O)(=O)NC(C(=O)N[C@H]1Cc2cccc(C(=O)O)c2OB1O)c1ccc(P(=O)(O)O)cc1 (stereo partly drawn) [Example 59, (3R)-2-hydroxy-3-(2-(methylsulfonamido)-2-(4-phosphonophenyl)acetamido)-3,4-dihydro-2H-benzo[e][1,2]oxaborinine-8-carboxylic acid]",> 128 mg/L,16 to 32 mg/L,> 128 mg/L,> 128 mg/L,16 to 32 mg/L,> 250 µM,16 to 32 mg/L,> 128 mg/L
"CCN1CCN(C(=O)NC(C(=O)N[C@H]2Cc3cccc(C(=O)O)c3OB2O)c2ccc(CP(=O)(O)O)cc2)C(=O)C1=O (stereo partly drawn) [Example 20, (3R)-3-(2-(4-ethyl-2,3-dioxopiperazine-1-carboxamido)-2-(4-(phosphonomethyl)phenyl)acetamido)-2-hydroxy-3,4-dihydro-2H-benzo[e][1,2]oxaborinine-8-carboxylic acid]",8 to 16 mg/L,< 1 mg/L,> 128 mg/L,> 128 mg/L,1 to 2 mg/L,< 10 µM,< 1 mg/L,8 to 16 mg/L
"O=C(O)c1cccc2c1OB(O)[C@@H](NC(=O)C(NC(=O)c1cnc[nH]c1=O)c1ccc(P(=O)(O)O)cc1)C2 (stereo partly drawn) [Example 176, (3R)-2-hydroxy-3-(2-(6-oxo-1,6-dihydropyrimidine-5-carboxamido)-2-(4-phosphonophenyl)acetamido)-3,4-dihydro-2H-benzo[e][1,2]oxaborinine-8-carboxylic acid]",32 to 64 mg/L,4 to 8 mg/L,32 to 64 mg/L,> 128 mg/L,16 to 32 mg/L,< 10 µM,1 to 2 mg/L,> 128 mg/L
"CS(=O)(=O)N1CCC[C@H]1C(=O)N[C@@H](C(=O)N[C@H]1Cc2cccc(C(=O)O)c2OB1O)c1ccc(P(=O)(O)O)cc1 [Example 44, (R)-2-hydroxy-3-((R)-2-((S)-1-(methylsulfonyl)pyrrolidine-2-carboxamido)-2-(4-phosphonophenyl)acetamido)-3,4-dihydro-2H-benzo[e][1,2]oxaborinine-8-carboxylic acid]",32 to 64 mg/L,1 to 2 mg/L,> 128 mg/L,> 128 mg/L,16 to 32 mg/L,< 10 µM,< 1 mg/L,> 128 mg/L
"N[C@@H](C(=O)N[C@H]1Cc2cccc(C(=O)O)c2OB1O)c1ccc(P(=O)(O)O)cc1 (single isomer, unassigned) [Example 171]",> 128 mg/L,> 64 mg/L,> 128 mg/L,> 128 mg/L,> 64 mg/L,> 250 µM,> 64 mg/L,> 128 mg/L
"CS(=O)(=O)N1CCN(C(=O)NC(C(=O)N[C@H]2Cc3cccc(C(=O)O)c3OB2O)c2ccc(P(=O)(O)O)c(O)c2)C1=O (stereo partly drawn) [Example 17, (3R)-2-hydroxy-3-(2-(3-hydroxy-4-phosphonophenyl)-2-(3-(methylsulfonyl)-2-oxoimidazolidine-1-carboxamido)acetamido)-3,4-dihydro-2H-benzo[e][1,2]oxaborinine-8-carboxylic acid]",8 to 16 mg/L,< 1 mg/L,32 to 64 mg/L,> 128 mg/L,< 1 mg/L,< 10 µM,< 1 mg/L,8 to 16 mg/L
"Nc1ncc(C(=O)N[C@@H](C(=O)N[C@H]2Cc3cccc(C(=O)O)c3OB2O)c2ccc(P(=O)(O)O)cc2)s1 (racemic) [Example 50, (R)-3-((S)-2-(2-aminothiazole-5-carboxamido)-2-(4-phosphonophenyl)acetamido)-2-hydroxy-3,4-dihydro-2H-benzo[e][1,2]oxaborinine-8-carboxylic acid and (R)-3-((R)-2-(2-aminothiazole-5-carboxamido)-2-(4-phosphonophenyl)acetamido)-2-hydroxy-3,4-dihydro-2H-benzo[e][1,2]oxaborinine-8-carboxylic acid]",32 to 64 mg/L,1 to 2 mg/L,> 128 mg/L,> 128 mg/L,16 to 32 mg/L,< 10 µM,1 to 2 mg/L,> 128 mg/L
"O=C(N[C@H](C(=O)N[C@H]1Cc2cccc(C(=O)O)c2OB1O)c1ccc(P(=O)(O)O)cc1)c1ccc(C(F)(F)F)cn1 (single isomer, unassigned) [Example 192]",32 to 64 mg/L,1 to 2 mg/L,> 128 mg/L,> 128 mg/L,16 to 32 mg/L,< 10 µM,< 1 mg/L,> 128 mg/L
"CCC(=O)NC(C(=O)N[C@H]1Cc2cccc(C(=O)O)c2OB1O)c1ccc(P(=O)(O)O)cc1 (stereo partly drawn) [Example 27, (3R)-2-hydroxy-3-(2-(4-phosphonophenyl)-2-propionamidoacetamido)-3,4-dihydro-2H-benzo[e][1,2]oxaborinine-8-carboxylic acid]",> 128 mg/L,4 to 8 mg/L,> 128 mg/L,> 128 mg/L,16 to 32 mg/L,10 to 50 µM,4 to 8 mg/L,> 128 mg/L
"O=C(O)c1cccc2c1OB(O)[C@@H](NC(=O)[C@@H](NC(=O)N1CCCCC1=O)c1ccc(P(=O)(O)O)cc1)C2 [Example 36, (R)-2-hydroxy-3-((S)-2-(2-oxopiperidine-1-carboxamido)-2-(4-phosphonophenyl)acetamido)-3,4-dihydro-2H-benzo[39e][1,2]oxaborinine-8-carboxylic acid]",> 128 mg/L,4 to 8 mg/L,> 128 mg/L,> 128 mg/L,16 to 32 mg/L,50 to 250 µM,1 to 2 mg/L,> 128 mg/L
"O=C(O)c1cccc2c1OB(O)[C@@H](NC(=O)[C@H](NC(=O)N1CCNC1=O)c1ccc(P(=O)(O)O)cc1)C2 [Example 40, (R)-2-hydroxy-3-((R)-2-(2-oxoimidazolidine-1-carboxamido)-2-(4-phosphonophenyl)acetamido)-3,4-dihydro-2H-benzo[e][1,2]oxaborinine-8-carboxylic acid]",8 to 16 mg/L,< 1 mg/L,32 to 64 mg/L,> 128 mg/L,1 to 2 mg/L,< 10 µM,< 1 mg/L,32 to 64 mg/L
"CC(=O)N1CCC[C@H]1C(=O)NC(C(=O)N[C@H]1Cc2cccc(C(=O)O)c2OB1O)c1ccc(P(=O)(O)O)cc1 (stereo partly drawn) [Example 65, (3R)-3-(2-((S)-1-acetylpyrrolidine-2-carboxamido)-2-(4-phosphonophenyl)acetamido)-2-hydroxy-3,4-dihydro-2H-benzo[e][1,2]oxaborinine-8-carboxylic acid]",> 128 mg/L,16 to 32 mg/L,> 128 mg/L,> 128 mg/L,16 to 32 mg/L,50 to 250 µM,4 to 8 mg/L,> 128 mg/L
"CS(=O)(=O)N1CCC[C@@H]1C(=O)N[C@H](C(=O)N[C@H]1Cc2cccc(C(=O)O)c2OB1O)c1ccc(P(=O)(O)O)cc1 [Example 34, (R)-2-hydroxy-3-((S)-2-((R)-1-(methylsulfonyl)pyrrolidine-2-carboxamido)-2-(4-phosphonophenyl)acetamido)-3,4-dihydro-2H-benzo[e][1,2]oxaborinine-8-carboxylic acid]",> 128 mg/L,4 to 8 mg/L,> 128 mg/L,> 128 mg/L,16 to 32 mg/L,50 to 250 µM,4 to 8 mg/L,> 128 mg/L
